Measurements taken from ChEMBL document CHEMBL1137403, “Discovery of 2-[4-{{2-(2S,5R)-2-cyano-5-ethynyl-1-pyrrolidinyl]-2-oxoethyl]amino]- 4-methyl-1-piperidinyl]-4-pyridinecarboxylic acid (ABT-279): a very potent, selective, effective, and well-tolerated inhibitor of dipeptidyl peptidase-IV, useful for the treatment of diabetes” (J Med Chem, 2006).

Assays:
Dipeptidyl peptidase 8 = Dipeptidyl peptidase 8 (Homo sapiens, UniProt Q6V1X1)
Dipeptidyl peptidase 2 = Dipeptidyl peptidase 2 (Homo sapiens, UniProt Q9UHL4); experiment: Inhibition of DPP7
Prolyl endopeptidase = molecular target: T1, Prolyl endopeptidase (Homo sapiens, UniProt P48147); experiment: Inhibition of POP
T1 sequence (P48147 whole entry): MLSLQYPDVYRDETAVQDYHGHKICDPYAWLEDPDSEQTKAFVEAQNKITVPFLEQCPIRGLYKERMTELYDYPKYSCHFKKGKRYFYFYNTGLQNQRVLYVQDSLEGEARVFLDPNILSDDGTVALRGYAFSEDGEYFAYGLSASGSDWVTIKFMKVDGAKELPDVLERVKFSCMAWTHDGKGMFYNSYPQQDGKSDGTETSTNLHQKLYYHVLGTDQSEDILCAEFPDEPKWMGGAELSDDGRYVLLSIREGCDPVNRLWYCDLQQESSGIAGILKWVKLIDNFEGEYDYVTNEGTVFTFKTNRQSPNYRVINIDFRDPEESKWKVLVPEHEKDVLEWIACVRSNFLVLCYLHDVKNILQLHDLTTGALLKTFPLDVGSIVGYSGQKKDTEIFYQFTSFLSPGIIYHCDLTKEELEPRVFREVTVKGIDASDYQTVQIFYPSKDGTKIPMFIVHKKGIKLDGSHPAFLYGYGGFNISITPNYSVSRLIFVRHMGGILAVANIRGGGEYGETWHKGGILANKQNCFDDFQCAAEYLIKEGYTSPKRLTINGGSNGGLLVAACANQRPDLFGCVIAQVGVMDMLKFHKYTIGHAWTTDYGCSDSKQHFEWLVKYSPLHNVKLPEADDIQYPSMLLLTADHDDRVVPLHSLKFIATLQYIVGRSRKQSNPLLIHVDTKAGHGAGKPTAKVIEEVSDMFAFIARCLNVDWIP

Prolyl endopeptidase FAP = molecular target: T2, Prolyl endopeptidase FAP (Homo sapiens, UniProt Q12884); experiment: Inhibition of FAPalpha
T2 sequence (Q12884 whole entry): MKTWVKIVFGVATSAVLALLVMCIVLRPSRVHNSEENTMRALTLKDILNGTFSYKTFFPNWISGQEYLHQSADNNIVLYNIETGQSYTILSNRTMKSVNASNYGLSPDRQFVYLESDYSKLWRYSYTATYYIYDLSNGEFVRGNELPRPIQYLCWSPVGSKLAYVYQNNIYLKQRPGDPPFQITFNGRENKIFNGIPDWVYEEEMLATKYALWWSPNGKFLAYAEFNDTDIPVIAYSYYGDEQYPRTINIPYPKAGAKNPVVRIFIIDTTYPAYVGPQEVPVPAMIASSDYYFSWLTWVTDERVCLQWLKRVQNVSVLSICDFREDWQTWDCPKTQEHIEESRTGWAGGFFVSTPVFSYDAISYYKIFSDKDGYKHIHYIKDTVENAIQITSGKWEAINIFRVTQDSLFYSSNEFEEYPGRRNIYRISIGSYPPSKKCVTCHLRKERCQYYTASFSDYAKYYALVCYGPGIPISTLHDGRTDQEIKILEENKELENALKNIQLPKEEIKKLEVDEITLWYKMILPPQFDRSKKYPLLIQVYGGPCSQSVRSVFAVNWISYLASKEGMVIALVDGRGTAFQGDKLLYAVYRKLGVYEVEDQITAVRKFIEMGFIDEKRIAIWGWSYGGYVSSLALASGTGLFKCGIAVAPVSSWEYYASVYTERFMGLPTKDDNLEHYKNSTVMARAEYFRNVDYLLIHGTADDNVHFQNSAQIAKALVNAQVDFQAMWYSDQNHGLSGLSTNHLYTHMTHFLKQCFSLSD

Dipeptidyl peptidase 9 = Dipeptidyl peptidase 9 (Homo sapiens, UniProt Q86TI2)
Chain of Dipeptidyl peptidase 9 (Q86TI2 whole entry): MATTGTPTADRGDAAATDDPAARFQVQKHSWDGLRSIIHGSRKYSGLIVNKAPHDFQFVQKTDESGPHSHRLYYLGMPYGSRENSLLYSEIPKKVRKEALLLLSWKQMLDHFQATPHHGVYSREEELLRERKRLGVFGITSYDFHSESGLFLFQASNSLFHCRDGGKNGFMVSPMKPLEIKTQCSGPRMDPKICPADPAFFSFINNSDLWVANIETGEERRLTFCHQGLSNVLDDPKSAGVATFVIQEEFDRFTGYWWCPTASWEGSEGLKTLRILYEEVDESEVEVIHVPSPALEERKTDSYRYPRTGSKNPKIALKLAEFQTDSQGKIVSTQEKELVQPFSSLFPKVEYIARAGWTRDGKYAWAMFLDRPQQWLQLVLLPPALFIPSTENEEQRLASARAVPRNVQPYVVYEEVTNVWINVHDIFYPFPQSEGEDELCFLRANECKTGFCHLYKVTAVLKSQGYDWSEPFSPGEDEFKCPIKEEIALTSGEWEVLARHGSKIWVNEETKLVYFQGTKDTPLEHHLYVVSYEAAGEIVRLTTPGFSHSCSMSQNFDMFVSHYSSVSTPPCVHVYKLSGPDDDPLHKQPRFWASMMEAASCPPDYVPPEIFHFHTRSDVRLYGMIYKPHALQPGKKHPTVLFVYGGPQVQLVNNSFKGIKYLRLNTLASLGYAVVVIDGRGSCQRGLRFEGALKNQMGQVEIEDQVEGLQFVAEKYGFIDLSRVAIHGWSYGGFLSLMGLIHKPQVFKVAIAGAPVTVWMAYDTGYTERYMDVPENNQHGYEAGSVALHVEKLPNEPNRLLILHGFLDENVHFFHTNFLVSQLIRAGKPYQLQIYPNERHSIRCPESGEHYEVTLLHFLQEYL

Chain of Dipeptidyl peptidase 8 (Q6V1X1 whole entry): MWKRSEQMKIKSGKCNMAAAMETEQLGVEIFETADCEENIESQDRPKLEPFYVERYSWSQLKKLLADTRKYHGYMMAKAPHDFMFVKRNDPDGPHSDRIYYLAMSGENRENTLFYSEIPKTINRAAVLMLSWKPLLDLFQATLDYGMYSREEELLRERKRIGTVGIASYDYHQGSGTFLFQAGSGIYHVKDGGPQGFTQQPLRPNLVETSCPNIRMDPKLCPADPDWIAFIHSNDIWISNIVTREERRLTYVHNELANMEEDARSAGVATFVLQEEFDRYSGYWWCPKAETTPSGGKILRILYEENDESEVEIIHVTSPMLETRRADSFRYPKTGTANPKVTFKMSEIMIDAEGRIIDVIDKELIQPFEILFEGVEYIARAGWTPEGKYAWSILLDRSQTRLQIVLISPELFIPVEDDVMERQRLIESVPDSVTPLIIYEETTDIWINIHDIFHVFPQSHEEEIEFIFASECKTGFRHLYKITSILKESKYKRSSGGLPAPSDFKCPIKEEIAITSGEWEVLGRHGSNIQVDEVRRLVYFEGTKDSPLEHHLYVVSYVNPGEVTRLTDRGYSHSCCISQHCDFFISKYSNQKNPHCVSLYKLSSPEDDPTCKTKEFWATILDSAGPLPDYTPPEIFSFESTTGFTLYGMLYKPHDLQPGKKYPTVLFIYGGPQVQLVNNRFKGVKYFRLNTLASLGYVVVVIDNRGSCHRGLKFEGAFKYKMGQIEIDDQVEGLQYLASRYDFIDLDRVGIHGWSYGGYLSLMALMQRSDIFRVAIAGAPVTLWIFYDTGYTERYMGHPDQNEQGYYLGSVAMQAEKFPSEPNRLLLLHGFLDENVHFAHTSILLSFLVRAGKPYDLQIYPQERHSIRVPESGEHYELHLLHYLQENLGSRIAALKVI

Ki (Dipeptidyl peptidase 8) [µM] | Ki (Dipeptidyl peptidase 2) [µM] | Ki (Prolyl endopeptidase) [µM] | Ki (Prolyl endopeptidase FAP) [µM] | Ki (Dipeptidyl peptidase 9) [µM] | SMILES
> 30 | > 30 | > 30 | > 30 | > 30 | C#C[C@H]1CC[C@@H](C#N)N1C(=O)CNC1(C)CCN(c2ccc(C(=O)O)cn2)CC1
> 30 | > 30 | > 30 | > 30 | > 30 | C#C[C@H]1CC[C@@H](C#N)N1C(=O)CNC1(C)CCN(c2ccc(C#N)cn2)CC1
– | – | – | – | > 30 | C#C[C@H]1CC[C@@H](C#N)N1C(=O)[C@@H](N)C1CCCC1
> 30 | – | – | – | > 30 | C#C[C@H]1CC[C@@H](C#N)N1C(=O)CNC12CC3CC(CC(O)(C3)C1)C2
